Test results reported in patent US20130150377A1, “Tetrahydropyridinyl and Dihydropyrrolyl Compounds and the Use Thereof” (SHIONOGI & CO., LTD., priority 2008, published 2013).

Target: T1, N-type calcium channel (NTCC) (Homo sapiens, UniProt Q00975)
T1 construct: endogenous in cells; host or cells: differentiated IMR32 cells (ATCC)
Experiment: FLIPR calcium mobilization assay for N-type calcium channel (differentiated IMR32 cells)
Assay type: cell-based
Conditions: N-type calcium channel blockers, calcium mobilization in vitro assay
Protocol: Cell maintenance and differentiation. Unless noted otherwise, cell culture reagents were purchased from Mediatech of Herndon, Md. IMR32 cells (American Type Culture Collection, ATCC, Manassas, Va.) were routinely cultured in growth medium consisting of minimum essential medium containing 10% fetal bovine serum (FBS, Hyclone, Logan, Utah), 100 U/mL penicillin, 100 μg/mL streptomycin, 2 mM L-glutamine, 1 mM sodium pyruvate, and 1×MEM non-essential amino acids. 80-90% confluent flasks of cells were differentiated using the following differentiation medium: Growth medium plus 1 mM dibutyryl cyclic AMP (Sigma, St. Louis, Mo.), and 2.5 μM bromodeoxyuridine (Sigma). Cells were differentiated for 8 days by replacing differentiation medium every 2-3 days.
FLIPR Calcium Mobilization Assay for N-type Calcium Channel.
One day prior to performing this assay, differentiated IMR32 cells were treated with 1× CellStripper, and seeded on poly-D-lysine-coated 96-well clear-bottom black plates (Becton Dickinson, Franklin Lakes, N.J.) at 200,000 cells/well. On the day of the assay, the cell plates were washed with IMR32 buffer (127 mM NaCl, 1 mM KCl, 2 mM MgCl2, 700 μM NaH2PO4, 5 mM CaCl2, 5 mM NaHCO3, 8 mM HEPES, 10 mM glucose, pH 7.4), then pre-stimulated with KCl and loaded as follows: […] of IMR32 buffer, 0.05 mL of each compound tested diluted in IMR32 buffer containing 20 μM nitrendipine (Sigma), and 0.1 mL KCl dissolved in IMR32 buffer, plus Fluo-4 were added (3 μM final concentration, Molecular Probes, Eugene, Oreg.). Final test compound concentrations ranged from about 846 pM to about 17 μM, final nitrendipine concentration was 5 μM, and final KCl concentration was 90 mM. After 1 hour, the cells were washed twice with 0.05 mL of each compound tested in nitrendipine-containing IMR32 buffer (no KCl or Fluo-4), and then replaced with 0.1 mL of each compound tested in nitrendipine-containing IMR32 buffer. Plates were then transferred to a Fluorimetric Imaging Plate Reader (FLIPR^96, Molecular Devices, Inc., Sunnyvale, Calif.) for assay. The FLIPR measured basal Fluo-4 fluorescence for 315 seconds (i.e., 5 minutes and 15 seconds), then added 0.1 mL KCl agonist dissolved in IMR32 buffer and measured fluorescence for another 45 seconds. Final test compound concentrations on the cells after FLIPR read ranged from about 846 pM to about 17 μM, final nitrendipine concentration was 5 μM, and final KCl concentration was 90 mM. Data were collected over the entire time course and analyzed using Excel, Graph Pad Prism (version 3.02, Graph Pad, San Diego, Calif.), or an in-house non-linear regression analysis software.

T1 sequence (Q00975 whole entry): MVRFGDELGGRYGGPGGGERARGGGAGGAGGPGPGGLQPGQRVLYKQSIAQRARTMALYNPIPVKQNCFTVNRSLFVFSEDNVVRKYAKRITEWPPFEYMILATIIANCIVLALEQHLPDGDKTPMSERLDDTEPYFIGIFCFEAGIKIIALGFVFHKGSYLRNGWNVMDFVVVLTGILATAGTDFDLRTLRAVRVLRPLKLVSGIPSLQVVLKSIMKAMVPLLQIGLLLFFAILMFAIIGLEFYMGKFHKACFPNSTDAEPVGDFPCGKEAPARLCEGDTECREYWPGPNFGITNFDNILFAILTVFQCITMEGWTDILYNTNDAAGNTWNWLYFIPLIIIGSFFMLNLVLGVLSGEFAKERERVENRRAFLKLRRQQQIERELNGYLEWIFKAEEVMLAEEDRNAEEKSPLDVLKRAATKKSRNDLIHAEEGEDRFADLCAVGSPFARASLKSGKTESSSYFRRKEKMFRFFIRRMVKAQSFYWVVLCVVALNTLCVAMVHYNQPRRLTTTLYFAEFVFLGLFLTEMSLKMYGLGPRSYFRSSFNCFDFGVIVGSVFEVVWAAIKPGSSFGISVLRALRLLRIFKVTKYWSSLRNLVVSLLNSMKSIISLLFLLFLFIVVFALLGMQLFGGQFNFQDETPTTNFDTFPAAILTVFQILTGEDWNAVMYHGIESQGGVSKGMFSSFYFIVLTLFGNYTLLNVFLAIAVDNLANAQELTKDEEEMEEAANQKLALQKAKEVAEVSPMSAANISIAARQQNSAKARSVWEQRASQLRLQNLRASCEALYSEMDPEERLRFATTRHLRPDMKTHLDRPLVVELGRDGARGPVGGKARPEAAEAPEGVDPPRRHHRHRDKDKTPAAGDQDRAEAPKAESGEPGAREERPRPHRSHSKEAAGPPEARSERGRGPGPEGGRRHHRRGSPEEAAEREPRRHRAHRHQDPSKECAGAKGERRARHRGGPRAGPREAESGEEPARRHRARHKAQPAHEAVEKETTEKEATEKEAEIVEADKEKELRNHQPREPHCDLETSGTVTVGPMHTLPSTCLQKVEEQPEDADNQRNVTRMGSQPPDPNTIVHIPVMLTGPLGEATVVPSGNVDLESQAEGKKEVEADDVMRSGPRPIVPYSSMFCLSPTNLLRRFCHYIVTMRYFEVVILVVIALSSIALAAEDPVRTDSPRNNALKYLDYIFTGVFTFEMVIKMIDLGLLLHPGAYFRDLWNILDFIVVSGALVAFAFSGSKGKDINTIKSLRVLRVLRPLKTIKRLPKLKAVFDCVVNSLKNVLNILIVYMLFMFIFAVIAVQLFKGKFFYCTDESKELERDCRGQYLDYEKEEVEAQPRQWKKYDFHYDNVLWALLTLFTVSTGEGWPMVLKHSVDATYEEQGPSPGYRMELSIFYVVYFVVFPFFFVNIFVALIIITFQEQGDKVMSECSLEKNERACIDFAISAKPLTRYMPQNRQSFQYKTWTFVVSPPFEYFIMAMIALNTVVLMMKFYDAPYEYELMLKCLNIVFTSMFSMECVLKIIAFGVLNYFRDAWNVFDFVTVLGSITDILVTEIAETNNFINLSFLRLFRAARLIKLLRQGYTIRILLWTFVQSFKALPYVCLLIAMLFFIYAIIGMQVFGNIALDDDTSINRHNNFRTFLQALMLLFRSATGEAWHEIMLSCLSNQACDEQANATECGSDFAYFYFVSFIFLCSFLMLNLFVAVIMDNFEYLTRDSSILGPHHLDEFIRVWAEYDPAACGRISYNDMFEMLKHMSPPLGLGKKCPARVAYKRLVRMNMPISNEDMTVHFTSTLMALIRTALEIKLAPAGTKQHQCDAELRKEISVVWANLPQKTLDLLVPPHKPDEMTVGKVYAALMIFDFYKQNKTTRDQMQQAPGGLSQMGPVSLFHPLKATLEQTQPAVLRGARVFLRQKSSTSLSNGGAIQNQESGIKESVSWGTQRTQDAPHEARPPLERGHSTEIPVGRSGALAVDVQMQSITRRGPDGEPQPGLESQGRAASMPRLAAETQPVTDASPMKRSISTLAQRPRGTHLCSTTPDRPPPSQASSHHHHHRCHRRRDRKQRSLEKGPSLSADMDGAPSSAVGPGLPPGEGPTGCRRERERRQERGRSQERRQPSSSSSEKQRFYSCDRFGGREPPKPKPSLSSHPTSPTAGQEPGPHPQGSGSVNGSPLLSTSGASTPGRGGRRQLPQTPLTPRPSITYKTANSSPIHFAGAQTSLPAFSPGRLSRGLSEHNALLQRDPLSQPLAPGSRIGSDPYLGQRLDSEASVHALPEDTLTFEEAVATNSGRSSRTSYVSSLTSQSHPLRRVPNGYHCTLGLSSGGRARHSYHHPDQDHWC
T1 sequence (P54289 25-956 partner limits assumed): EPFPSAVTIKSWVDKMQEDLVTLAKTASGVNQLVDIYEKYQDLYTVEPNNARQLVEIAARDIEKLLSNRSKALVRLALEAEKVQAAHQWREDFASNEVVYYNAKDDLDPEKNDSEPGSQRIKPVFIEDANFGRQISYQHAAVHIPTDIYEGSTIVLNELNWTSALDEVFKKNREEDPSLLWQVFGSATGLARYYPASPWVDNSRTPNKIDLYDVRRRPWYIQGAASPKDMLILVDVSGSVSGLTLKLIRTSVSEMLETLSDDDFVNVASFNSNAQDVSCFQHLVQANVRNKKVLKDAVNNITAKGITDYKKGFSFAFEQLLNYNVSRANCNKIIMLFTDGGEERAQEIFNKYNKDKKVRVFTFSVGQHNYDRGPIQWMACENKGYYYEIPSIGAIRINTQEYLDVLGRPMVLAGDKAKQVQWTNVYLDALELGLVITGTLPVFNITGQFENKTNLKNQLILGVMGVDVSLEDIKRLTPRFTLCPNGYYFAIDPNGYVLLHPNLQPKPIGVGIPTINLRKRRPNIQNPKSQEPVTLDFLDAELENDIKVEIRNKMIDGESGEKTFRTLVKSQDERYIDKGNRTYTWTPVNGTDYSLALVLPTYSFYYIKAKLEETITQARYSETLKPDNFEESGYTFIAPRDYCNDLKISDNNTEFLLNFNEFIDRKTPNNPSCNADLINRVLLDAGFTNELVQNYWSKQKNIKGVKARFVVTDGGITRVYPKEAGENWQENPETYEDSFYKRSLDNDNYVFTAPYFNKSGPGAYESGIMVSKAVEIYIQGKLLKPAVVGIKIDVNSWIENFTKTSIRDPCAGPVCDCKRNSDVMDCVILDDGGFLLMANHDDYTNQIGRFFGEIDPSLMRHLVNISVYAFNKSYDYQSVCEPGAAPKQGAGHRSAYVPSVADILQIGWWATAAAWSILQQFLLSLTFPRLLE
T1 sequence (P54289 957-1103 partner limits assumed): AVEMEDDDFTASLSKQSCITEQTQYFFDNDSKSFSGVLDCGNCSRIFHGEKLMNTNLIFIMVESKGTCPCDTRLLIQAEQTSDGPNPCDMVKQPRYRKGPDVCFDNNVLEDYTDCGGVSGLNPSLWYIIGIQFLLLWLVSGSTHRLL
T1 sequence (P54284 whole entry partner): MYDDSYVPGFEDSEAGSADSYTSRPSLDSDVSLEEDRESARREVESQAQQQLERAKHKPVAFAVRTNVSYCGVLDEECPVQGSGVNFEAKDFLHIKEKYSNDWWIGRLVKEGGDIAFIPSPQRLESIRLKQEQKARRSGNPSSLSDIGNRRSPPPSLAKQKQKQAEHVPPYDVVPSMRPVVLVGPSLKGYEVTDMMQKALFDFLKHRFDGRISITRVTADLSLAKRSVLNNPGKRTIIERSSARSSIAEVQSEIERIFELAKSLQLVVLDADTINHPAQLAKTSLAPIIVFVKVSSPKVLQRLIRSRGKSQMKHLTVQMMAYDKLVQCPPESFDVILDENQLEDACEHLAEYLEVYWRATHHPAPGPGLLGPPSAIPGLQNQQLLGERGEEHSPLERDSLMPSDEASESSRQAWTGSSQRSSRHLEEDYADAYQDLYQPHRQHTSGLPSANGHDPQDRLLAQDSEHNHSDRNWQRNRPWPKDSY

Row | SMILES | IC50 [nM]
1 | O=C(NC1CC1)c1cccc(C2=CCN(Cc3ccc(OC(F)(F)F)cc3)CC2)n1 [Compound 9, 1′-(4-Trifluoromethoxybenzyl)-1′,2′,3′,6′-tetrahydro-[2,4′]bipyridinyl-6-carboxylic acid cyclopropylamide] | 930
2 | O=C(NC1CC1)c1cccc(C2=CC(=O)N(S(=O)(=O)c3cccc(C(F)(F)F)c3)CC2)n1 [Compound 45, 6′-Oxo-1′-(3-trifluoromethylbenzenesulfonyl)-1′,2′,3′,6′-tetrahydro-[2,4′]bipyridinyl-6-carboxylic acid cyclopropylamide] | 20
3 | O=C(NCC1CC1)c1ncccc1C1=CCN(S(=O)(=O)c2ccc(OC(F)(F)F)cc2)CC1 [1′-(4-Trifluoromethoxybenzenesulfonyl)-1′,2′,3′,6′-tetrahydro-[3,4′]bipyridinyl-2-carboxylic acid cyclopropylmethylamide] | 690
4 | O=C(NCC(F)(F)F)c1ncccc1C1=CCN(S(=O)(=O)c2ccc(OC(F)(F)F)cc2)CC1 [1′-(4-Trifluoromethoxybenzenesulfonyl)-1′,2′,3′,6′-tetrahydro-[3,4′]bipyridinyl-2-carboxylic acid 2,2,2-trifluoroethylamide] | 960
5 | N#Cc1cccc(C2=CCN(S(=O)(=O)c3cccc(C(F)(F)F)c3)CC2)n1 [Compound 32, 1′-(3-Trifluoromethylbenzenesulfonyl)-1′,2′,3′,6′-tetrahydro-[2,4′]bipyridinyl-6-carbonitrile] | 1600
6 | O=C(NC1CC1)c1nc(C2=CCN(S(=O)(=O)c3ccc(OC(F)(F)F)cc3)CC2)ccc1Cl [5-Chloro-1′-(4-trifluoromethoxybenzenesulfonyl)-1′,2′,3′,6′-tetrahydro-[2,4′]bipyridinyl-6-carboxylic acid cyclopropylamide] | 490
7 | O=C(NC1CC1)c1cccc(C2=CCN(S(=O)(=O)C3CCCCC3)CC2)n1 [1′-Cyclohexylsulfonyl-1′,2′,3′,6′-tetrahydro-[2,4′]bipyridinyl-6-carboxylic acid cyclopropylamide] | 320
8 | N=C(NCC1CC1)c1cccc(C2=CCN(S(=O)(=O)c3ccc(OC(F)(F)F)cc3)CC2)n1 [Compound 34, N-Cyclopropylmethyl-1′-(4-trifluoromethoxybenzenesulfonyl)-1′,2′,3′,6′-tetrahydro-[2,4′]bipyridinyl-6-carboxamidine] | 320
9 | O=C(NC1CC1)c1cccc(C2=CCN(S(=O)(=O)c3ccccn3)CC2)n1 [1′-(Pyridin-2-ylsulfonyl)-1′,2′,3′,6′-tetrahydro-[2,4′]bipyridinyl-6-carboxylic acid cyclopropylamide] | 9920
10 | O=C(NC1CC1)c1cccc(C2=CCN(C(CO)c3ccc(OC(F)(F)F)cc3)CC2)n1 (stereo not drawn) [Compound 67, 1′-[2-Hydroxy-1-(4-trifluoromethoxyphenyl)ethyl]-1′,2′,3′,6-tetrahydro-[2,4′]bipyridinyl-6-carboxylic acid cyclopropylamide] | 1340
11 | O=C(NC1CC1)c1nc(C2=CCN(S(=O)(=O)c3cccc(C(F)(F)F)c3)CC2)ccc1Cl [Compound 44, 5-Chloro-1′-(3-trifluoromethylbenzenesulfonyl)-1′,2′,3′,6′-tetrahydro-[2,4′]bipyridinyl-6-carboxylic acid cyclopropylamide] | 60
12 | O=C(O)c1cccc(C2=CCN(S(=O)(=O)c3cccc(C(F)(F)F)c3)CC2)n1 [Compound 26, 1′-(3-Trifluoromethylbenzenesulfonyl)-1′,2′,3′,6′-tetrahydro-[2,4′]bipyridinyl-6-carboxylic acid] | > 20000
13 | CN(C)S(=O)(=O)N1CC=C(c2cccc(C(=O)NC3CC3)n2)CC1 [1′-Dimethylsulfamoyl-1′,2′,3′,6′-tetrahydro-[2,4′]bipyridinyl-6-carboxylic acid cyclopropylamide] | > 20000
14 | O=C(NC1CC1)c1cccc(C2=CC3CCC(C2)N3S(=O)(=O)c2cccc(C(F)(F)F)c2)n1 (stereo not drawn) [Compound 55, 6-[8-(3-Trifluoromethylbenzenesulfonyl)-8-aza-bicyclo[3.2.1]oct-2-en-3-yl]pyridine-2-carboxylic acid cyclopropylamide] | 50
15 | O=C(NC1CC1)c1ccnc(C2=CCN(S(=O)(=O)c3ccc(OC(F)(F)F)cc3)CC2)n1 [2-[1-(4-Trifluoromethoxybenzenesulfonyl)-1,2,3,6-tetrahydropyridin-4-yl]pyrimidine-4-carboxylic acid cyclopropylamide] | 240
16 | O=C(NCC1CC1)c1cccc(C2=CCN(S(=O)(=O)c3cccc(C(F)(F)F)c3)CC2)n1 [Compound 27, 1′-(3-Trifluoromethylbenzenesulfonyl)-1′,2′,3′,6′-tetrahydro-[2,4′]bipyridinyl-6-carboxylic acid cyclopropylmethylamide] | 10

Target: T2, L-type calcium channel (LTCC) subunits (α1c, α2δ, and β1) (Rattus norvegicus, UniProt P22002)
T2 construct: expressed in transfected cells; pcDNA6.2DEST α1c, pcDNA3.2DEST β1, pcDNA3.1-Zeo α2δ)
Experiment: FLIPR calcium mobilization assay for L-type calcium channel (HEK293 cells expressing recombinant LTCC subunits)
Assay type: cell-based
Conditions: calcium mobilization assay for L-type calcium channel blocking activity
Protocol: Recombinant human embryonal kidney cells (HEK293, ATCC) stably transfected with either N-type calcium channel (NTCC) subunits (α1b, α28, and β3) or L-type calcium channel (LTCC) subunits (α1c, α2δ, and […]) were routinely cultured in growth medium consisting of Dulbecco's Modified Eagles Medium containing 10% FBS, 100 U/mL penicillin, 100 μg/mL streptomycin, 4 mM L-glutamine, 500 μg/mL geneticin (G418), 20 μg/mL Blasticidin S (InVivogen, San Diego, Calif.) and 500 μg/mL zeocin (InVivogen).
FLIPR Calcium Mobilization Assay for L-type Calcium Channel.
One day prior to performing this assay, HEK293 cells stably expressing recombinant rat L-type calcium channel (LTCC) subunits (α1c, α2δ, and β1) were trypsinized, then seeded on poly-D-lysine-coated 96-well clear-bottom black plates (Becton Dickinson, Franklin Lakes, N.J.) at 75,000 cells/well. […] The FLIPR measured basal Fluo-4 fluorescence for 15 seconds, then added 0.05 mL of each compound tested diluted in LTCC assay buffer at final concentrations ranging from about 846 pM to about 17 μM. Fluo-4 fluorescence was then measured for 5 minutes. 0.1 mL KCl agonist dissolved in LTCC assay buffer was, then added to the cells to produce a final concentration of 90 mM KCl, and fluorescence was measured for another 45 seconds. […]

Row | SMILES | IC50 [nM]
17 | O=C(NC1CC1)c1cccc(C2=CCN(Cc3ccc(OC(F)(F)F)cc3)CC2)n1 [Compound 9, 1′-(4-Trifluoromethoxybenzyl)-1′,2′,3′,6′-tetrahydro-[2,4′]bipyridinyl-6-carboxylic acid cyclopropylamide] | > 20000
18 | O=C(NC1CC1)c1cccc(C2=CC(=O)N(S(=O)(=O)c3cccc(C(F)(F)F)c3)CC2)n1 [Compound 45, 6′-Oxo-1′-(3-trifluoromethylbenzenesulfonyl)-1′,2′,3′,6′-tetrahydro-[2,4′]bipyridinyl-6-carboxylic acid cyclopropylamide] | > 20000
